Source: patent publication US8592486B2, “Compounds for inflammation and immune-related uses” (Synta Pharmaceuticals Corp., priority 2005, dated 2013)
Structures can show the parent of a compound that is named as a salt. Where two headings read alike, the source gives them in different places.

Assays:
IL-2 production = experiment: Inhibition of IL-2 production in PHA-activated Jurkat cells (ELISA); assay type: cell-based, human; conditions: Jurkat cells, PHA 2.5 μg/mL, 20 hours, IL-2 ELISA, read-out: IC50 (inhibition of IL-2 production)
Description: Jurkat cells were placed in a 96 well plate (0.5 million cells per well in 1% FBS medium) then a test compound of this invention was added at different concentrations. After 10 minutes, the cells were activated with PHA (final concentration 2.5 μg/mL) and incubated for 20 hours at 37° C. under CO2. The final volume was 200 μL. Following incubation, the cells were centrifuged and the supernatants collected and stored at −70° C. prior to assaying for IL-2 production. A commercial ELISA kit (IL-2 Eli-pair, Diaclone Research, Besancon, France) was used to detect production of IL-2, from which dose response curves were obtained. The IC50 value was calculated as the concentration at which 50% of maximum IL-2 production after stimulation was inhibited versus a non-stimulation control.

[1] = test system: degranulation in RBL cells; experiment: Inhibition of degranulation in RBL cells; assay type: cell-based; conditions: Rattus norvegicus, anti-DNP IgE, read-out: IC50 (concentration which inhibits 50% of degranulation in RBL cells)
Description: The day before the assay was performed, RBL cells, that had been grown to confluence in a 96 well plate, were incubated at 37° C. for at least 2 hours. The medium was replaced in each well with 100 μL of fresh medium containing […] of anti-DNP IgE.
On the following day, the cells were washed once with PRS (2.6 mM glucose and 0.1% BSA) and 160 μL of PRS was added to each well. A test compound was added to a well in a 20 μL solution at 10× of the desired concentration and incubated for 20 to 40 minutes at 37° C. 20 μL of 10× mouse anti-IgE ([…]) was added. Maximum degranulation occurred between 15 to 40 minutes after addition of anti-IgE.

| SMILES | IC50 (IL-2 production; Homo sapiens, Jurkat, 20 h) [nM] | other results |
| --- | --- | --- |
| COc1ncc(Cl)cc1-c1ccc(NC(=O)c2c(F)cccc2F)cc1 [Compound 5, N-[4-(5-Chloro-2-methoxy-pyridin-3-yl)-phenyl]-2,6-difluoro-benzamide] | 1 | IC50 [1]: 1100 nM |
| COc1ncc(Cl)cc1-c1ccc(NC(=O)c2c(F)cccc2F)cc1 [Compound 8, N-[4-(5-Chloro-2-methoxy-pyridin-3-yl)-phenyl]-2,6-difluoro-benzamide, hydrochloride] |  | IC50 (IL-2 production; Homo sapiens): 13 nM; IC50 ([1]; RBL): 520 nM |
| Cc1ccc(-c2ccno2)cc1-c1ccc(NC(=O)c2snnc2C)cc1 [Compound 33, 4-Methyl-[1,2,3]thiadazole-5-carboxylic acid [2′-methyl-5′-(isoxazol-5-yl)-biphenyl-4-yl]-amide] | 4 |  |
| Cc1ccc(-c2nccs2)cc1-c1ccc(NC(=O)c2snnc2C)cc1 [Compound 76, 4-Methyl-[1,2,3]thiadazole-5-carboxylic acid [2′-methyl-5′-(thiazol-2-yl)-biphenyl-4-yl]-amide] | 7 |  |
| Cc1cnccc1C(=O)Nc1ccc(-c2cc(-c3ncco3)ccc2Cl)cc1 [Compound 17, 3-Methyl-N-(2′-chloro-5′-oxazol-2-yl-biphenyl-4-yl)-isonicotin-amide, hydrochloride] | 7 |  |
| Cc1cnccc1C(=O)Nc1ccc(-c2cc(-c3cnco3)ccc2C)cc1 [Compound 26, 3-Methyl-N-[5′-(oxazol-5-yl)-2′-methyl-biphenyl-4-yl]-isonicotinamide] | 5 |  |
| COc1ccc(-c2cnco2)cc1-c1ccc(NC(=O)c2snnc2C)cc1 [Compound 25, 4-Methyl-[1,2,3]thiadiazole-5-carboxylic acid [2′-methoxy-5′-(oxazol-5-yl)-biphenyl-4-yl]-amide] | 3 |  |
| Cc1ccc(-c2nncs2)cc1-c1ccc(NC(=O)c2ccncc2F)cc1 [Compound 61, 3-Fluoro-N-[5′-([1,3,4]thiadiazol-2-yl)-2′-methyl-biphenyl-4-yl]-isonicotinamide] | 6 |  |
| COc1ccc(CCCOC(Cn2ccnc2)c2ccc(OC)cc2)cc1 (centres unmarked) [SKF96365, reference compound] |  | IC50 ([1]; RBL): > 20000 nM |
| Cc1ccc(-c2ccccn2)cc1-c1ccc(NC(=O)c2c(F)cccc2F)cc1 [Compound 23, 2,6-Difluoro-N-[2′-methyl-5′-(pyridine-2-yl)-biphenyl-4-yl]-benzamide] | 5 |  |
| O=C(Nc1ccc(-c2cc(-c3nccs3)ccc2Cl)cc1)c1ccncc1F [Compound 58, 3-Fluoro-N-[5′-(thiazol-2-yl)-2′-chloro-biphenyl-4-yl]-isonicotinamide] | 2 |  |
| Cc1cnccc1C(=O)Nc1ccc(-c2cc(-c3nccs3)ccc2C)cc1 [Compound 9, 3-Methyl-N-(2′-methyl-5′-thiazol-2-yl-biphenyl-4-yl)-isonicotinamide, HCl salt] | 7 | IC50 [1]: 1410 nM |
| Cc1ccc(-c2nnn[nH]2)cc1-c1ccc(NC(=O)c2c(F)cccc2F)cc1 [Compound 6, 2,6-Difluoro-N-[2′-methyl-5′-(1H-tetrazol-5-yl)-biphenyl-4-yl]-benzamide] | 9 | IC50 [1]: 5010 nM |
| Cc1cnccc1C(=O)Nc1ccc(-c2cc(-c3nnn[nH]3)ccc2C)cc1 [Compound 44, 3-Methyl-N-[2′-methyl-5′-(1H-tetrazol-5-yl)-biphenyl-4-yl]-isonicotinamide] | > 1000 |  |
| COCCOC(=O)c1ccc(Cl)c(-c2ccc(NC(=O)c3c(F)cccc3F)cc2)c1 [Compound 2, 6-Chloro-4′-(2,6-difluoro-benzoylamino)-biphenyl-3-(carboxylic acid 2-methoxyethyl ester)] | 9 | IC50 [1]: 4850 nM |
| Cc1ccc(-c2nnco2)cc1-c1ccc(NC(=O)c2c(F)cccc2F)cc1 [Compound 69, 2,6-Difluoro-N-[2′-methyl-5′-([1,3,4]oxadiazol-2-yl)-biphenyl-4-yl]-benzamide] | 5 |  |
| Cc1ccc(-c2nnco2)cc1-c1ccc(NC(=O)c2ccncc2F)cc1 [Compound 71, 3-Fluoro-N-[2′-methyl-5′-([1,3,4]oxadiazol-2-yl)-biphenyl-4-yl]-isonicotinamide] | 6 |  |
| COC(=O)c1ccc(C)c(-c2ccc(NC(=O)c3c(F)cncc3F)cc2)c1 [Compound 4, 4′-[(3,5-Difluoro-pyridine-4-cabonyl)-amino]-6-methyl-biphenyl-3-carboxylic acid methyl ester] | 2 | IC50 [1]: 1450 nM |
| Cc1cnccc1C(=O)Nc1ccc(-c2cc(-c3nccs3)ccc2C)cc1 [Compound 14, 3-Methyl-N-(2′-methyl-5′-thiazol-2-yl-biphenyl-4-yl)-isonicotin-amide] |  | IC50 (IL-2 production): 10 nM |

The next lines start with results.

| IC50 (IL-2 production; Homo sapiens, Jurkat, 20 h) [nM] | SMILES | other results |
| --- | --- | --- |
| 9 | Cc1ccc(-c2cocn2)cc1-c1ccc(NC(=O)c2ccncc2F)cc1 [Compound 78, 3-Fluoro-N-[2′-methyl-5′-(oxazol-4-yl)-biphenyl-4-yl]-isonicotinamide] |  |
| 6 | Cc1cnccc1C(=O)Nc1ccc(-c2cc(-c3nccs3)ccc2Cl)cc1 [Compound 55, 3-Methyl-N-[5′-(thiazol-2-yl)-2′-chloro-biphenyl-4-yl]-isonicotinamide] |  |
| 7 | Cc1ccc(-c2nccs2)cc1-c1ccc(NC(=O)c2c(F)cncc2F)cc1 [Compound 28, 3,5-Difluoro-N-[5′-(thiazol-2-yl)-2′-methyl-biphenyl-4-yl]-isonicotinamide] |  |
| 6 | Cc1ccc(-c2cccnc2)cc1-c1ccc(NC(=O)c2snnc2C)cc1 [Compound 21, 4-Methyl-[1,2,3]thiadazole-5-carboxylic acid [2′-methyl-5′-(pyridin-3-yl)-biphenyl-4-yl]-amide] |  |
| 3 | Cc1ccc(-c2nnco2)cc1-c1ccc(NC(=O)c2c(F)cncc2F)cc1 [Compound 68, 3,5-Difluoro-N-[2′-methyl-5′-([1,3,4]oxadiazol-2-yl)-biphenyl-4-yl]-isonicotinamide] |  |
| 6 | O=C(Nc1ccc(-c2cc(-c3ncco3)ccc2Cl)cc1)c1c(F)cccc1F [Compound 31] |  |
| 1.6 | Cc1ccc(-c2ncco2)cc1-c1ccc(NC(=O)c2c(F)cccc2F)cc1 [Compound 3, 2,6-Difluoro-N-(2′-methyl-5′-oxazol-2-yl-biphenyl-4-yl)-bezamide] | IC50 [1]: 4500 nM |
| 2 | Cc1ccc(-c2nccs2)cc1-c1ccc(NC(=O)c2c(F)cccc2F)cc1 [Compound 15, 2,6-Difluoro-N-(2′-methyl-5′-thiazol-2-yl-biphenyl-4-yl)-benzamide] |  |
| 35 | COc1ccc(-c2cccs2)cc1-c1ccc(NC(=O)c2ccncc2C)cc1 [Compound 52, 3-Methyl-N-[5′-(thien-2-yl)-2′-methoxy-biphenyl-4-yl]-isonicotinamide] |  |
| > 1000 | CSc1nnc(-c2ccc(C)c(-c3ccc(NC(=O)c4ccncc4C)cc3)c2)n1C [Compound 74, 3-Methyl-N-[2′-methyl-5′-(4-methyl-5-methylsulfanyl-4H-[1,2,4]triazol-3-yl)-biphenyl-4-yl]-isonicotinamide] |  |
| 15 | Cc1ccc(-c2ccccn2)cc1-c1ccc(NC(=O)c2snnc2C)cc1 [Compound 24, 4-Methyl-[1,2,3]thiadazole-5-carboxylic acid [2′-methyl-5′-(pyridin-2-yl)-biphenyl-4-yl]-amide] |  |
| 5 | COC(=O)c1ccc(C)c(-c2ccc(NC(=O)c3ccncc3F)cc2)c1 [Compound 12, 4′-[(3-Fluoro-pyridine-4-carbonyl)-amino]-6-methyl-biphenyl-3-carboxylic acid methyl ester] | IC50 [1]: 480 nM |
| 9 | COc1ncc(Cl)cc1-c1ccc(NC(=O)c2ccncc2C)cc1 [Compound 18, 3-Methyl-N-[4-(5-chloro-2-methoxy-pyridin-3-yl)-phenyl]-isonicotinamide] |  |
| > 1000 | CSc1nnc(-c2ccc(C)c(-c3ccc(NC(=O)c4c(F)cncc4F)cc3)c2)n1C [Compound 75, 3,5-Difluoro-N-[2′-methyl-5′-(4-methyl-5-methylsulfanyl-4H-[1,2,4]triazol-3-yl)-biphenyl-4-yl]-isonicotinamide] |  |
| 10 | Cc1ccc(-c2cocn2)cc1-c1ccc(NC(=O)c2c(F)cccc2F)cc1 [Compound 77, 2,6-Difluoro-N-[2′-methyl-5′-(oxazol-4-yl)-biphenyl-4-yl]-benzamide] |  |
| 1 | Cc1ccc(-c2cccnc2)cc1-c1ccc(NC(=O)c2c(F)cccc2F)cc1 [Compound 22, 2,6-Difluoro-N-[2′-methyl-5′-(pyridine-3-yl)-biphenyl-4-yl]-benzamide] |  |
| 2 | Cc1cc(-c2ccc(C)c(-c3ccc(NC(=O)c4c(F)cccc4F)cc3)c2)on1 [Compound 35, 2,6-Difluoro-N-[2′-methyl-5′-(3-methyl-isoxazole-5-yl)-biphenyl-4-yl]-benzamide] |  |
